# Patent US20160009674A1, “PROTOTYPICAL BRAIN PROTECTIVE ACTIVITY OF TETRAHYDRO-N-METHYL-2,2-DIPHENYL-3-FURANOMETHANAMINE (AE37MET)” (priority 2013, published 2016)
# Entries after “also recorded” stand apart in the source; their conditions may differ.
# Columns and labels:
# [1] = test system: hippocampal slices; assay: in vitro evaluation of the compounds' own functional excitotoxicity on hippocampal slices
# [2] = target: T1, sigma-1 (Homo sapiens, UniProt Q99720); assay: sigma-1 agonistic activity
# T1 sequence (Q99720 whole entry): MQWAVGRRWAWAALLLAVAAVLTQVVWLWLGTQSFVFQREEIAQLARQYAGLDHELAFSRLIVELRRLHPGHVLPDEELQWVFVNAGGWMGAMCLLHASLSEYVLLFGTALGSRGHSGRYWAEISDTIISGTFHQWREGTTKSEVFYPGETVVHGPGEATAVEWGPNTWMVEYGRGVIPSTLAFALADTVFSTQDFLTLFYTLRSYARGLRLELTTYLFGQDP
# [3] = target: N-methyl-D-aspartate (NMDA) receptors; assay: NMDA receptor affinity; type: binding
# [4] = test system: NMDA (10 μM) induced functional excitotoxicity, hippocampal slices; assay: NMDA (10 μM) induced functional excitotoxicity in rat hippocampal slices; settings: for neuroprotection against NMDA induced functional excitotoxicity: hippocampal slices
# [5] = test system: brain ischemia; assay: brain ischemia in mice; type: in vivo; settings: for neuroprotection against mice brain ischemia: dose not given
# [6] = test system: MES convulsions; assay: Maximal Electrochoc Seizures (MES) in mice; type: in vivo; settings: 10 to 30 mg/kg po
# [7] = test system: mitochondrial toxicity of pentylenetetrazole (PTZ); assay: latency of lethality of pentylenetetrazole (PTZ) in mice; type: in vivo; settings: PTZ 130 mg/kg ip
# [8] = test system: Aβ25-35 induced amnesia and neurotoxicity; assay: Aβ25-35 induced amnesia and neurotoxicity in mice (Y-maze, step-through); type: in vivo
# [9] = test system: immobility; assay: forced swimming (Porsolt) test in mice; type: in vivo; settings: from 5 mg/kg po
# [10] = test system: M2 and M3 muscarinic receptors in the periphery; assay: antagonism of peripheral M2 and M3 muscarinic receptors in mice; type: in vivo; settings: from 1 to 10 mg/kg ip
# [11] = target: M3 muscarinic receptors (Homo sapiens, UniProt P20309); assay: M3 muscarinic receptor affinity; type: binding
# Sequence of M3 muscarinic receptors (Homo sapiens, UniProt P20309) (P20309 whole entry): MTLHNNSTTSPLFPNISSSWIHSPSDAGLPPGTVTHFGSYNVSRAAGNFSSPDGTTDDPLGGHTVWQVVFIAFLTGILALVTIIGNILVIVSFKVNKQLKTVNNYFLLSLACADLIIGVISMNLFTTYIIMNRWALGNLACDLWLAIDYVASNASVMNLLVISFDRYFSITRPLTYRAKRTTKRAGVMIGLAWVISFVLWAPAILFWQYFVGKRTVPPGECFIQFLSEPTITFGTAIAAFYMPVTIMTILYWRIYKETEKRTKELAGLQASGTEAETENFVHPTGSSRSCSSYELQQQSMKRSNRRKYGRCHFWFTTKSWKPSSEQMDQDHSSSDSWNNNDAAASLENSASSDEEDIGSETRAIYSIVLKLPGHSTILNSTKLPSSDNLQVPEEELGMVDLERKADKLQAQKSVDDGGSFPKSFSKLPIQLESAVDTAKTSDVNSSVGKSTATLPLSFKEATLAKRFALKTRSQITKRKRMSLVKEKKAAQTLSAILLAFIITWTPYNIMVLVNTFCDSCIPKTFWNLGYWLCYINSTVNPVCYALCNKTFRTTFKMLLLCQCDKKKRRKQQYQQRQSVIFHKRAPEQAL
# [12] = test system: PTZ convulsions; assay: Pentylenetetrazole (PTZ) convulsions in mice; type: in vivo; settings: 10 to 30 mg/kg po
# [13] = target: sigma-2 receptors (Homo sapiens, UniProt Q5BJF2); assay: sigma-2 receptor affinity (binding)
# Sequence of sigma-2 receptors (Q5BJF2 whole entry): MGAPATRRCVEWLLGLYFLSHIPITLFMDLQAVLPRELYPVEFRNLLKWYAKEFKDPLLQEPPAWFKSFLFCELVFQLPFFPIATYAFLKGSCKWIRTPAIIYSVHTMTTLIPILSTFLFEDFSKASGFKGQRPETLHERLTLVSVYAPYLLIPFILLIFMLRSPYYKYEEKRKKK
# [14] = target: T2, M2 muscarinic receptors (Cavia porcellus, UniProt H0VRN8); assay: functional M2 antagonism, guinea pig left atria
# T2 construct: from tissue; host or cells: guinea pig left atria
# T2 sequence (H0VRN8 1-466): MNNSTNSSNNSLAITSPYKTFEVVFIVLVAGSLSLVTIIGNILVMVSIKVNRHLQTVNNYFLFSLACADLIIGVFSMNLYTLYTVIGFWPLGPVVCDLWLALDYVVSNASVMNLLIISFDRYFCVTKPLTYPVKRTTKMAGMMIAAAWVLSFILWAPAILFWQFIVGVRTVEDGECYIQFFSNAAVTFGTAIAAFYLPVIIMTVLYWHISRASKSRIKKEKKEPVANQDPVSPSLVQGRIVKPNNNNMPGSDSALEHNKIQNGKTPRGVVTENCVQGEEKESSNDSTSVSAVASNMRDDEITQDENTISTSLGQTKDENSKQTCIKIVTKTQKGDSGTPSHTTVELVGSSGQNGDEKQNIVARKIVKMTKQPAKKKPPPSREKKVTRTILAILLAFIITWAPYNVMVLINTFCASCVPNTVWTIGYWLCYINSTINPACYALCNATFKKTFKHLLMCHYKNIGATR
# [15] = target: T3, M2 muscarinic receptors (Homo sapiens, UniProt P08172); assay: M2 muscarinic receptor affinity; type: binding
# T3 sequence (P08172 1-466): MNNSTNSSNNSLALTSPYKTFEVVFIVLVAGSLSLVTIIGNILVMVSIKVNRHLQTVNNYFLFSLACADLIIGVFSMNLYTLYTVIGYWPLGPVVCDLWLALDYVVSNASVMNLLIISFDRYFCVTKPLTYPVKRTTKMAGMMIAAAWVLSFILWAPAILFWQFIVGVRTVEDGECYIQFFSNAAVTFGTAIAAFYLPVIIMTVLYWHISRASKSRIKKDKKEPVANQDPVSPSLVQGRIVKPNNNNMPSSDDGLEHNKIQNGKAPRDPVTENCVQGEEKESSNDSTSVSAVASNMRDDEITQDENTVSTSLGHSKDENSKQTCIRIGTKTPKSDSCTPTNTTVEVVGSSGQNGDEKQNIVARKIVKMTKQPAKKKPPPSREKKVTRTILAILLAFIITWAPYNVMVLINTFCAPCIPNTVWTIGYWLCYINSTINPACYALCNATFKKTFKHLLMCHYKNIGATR
# [16] = target: T4, M3 muscarinic receptors (Cavia porcellus, UniProt H0W1Z3); assay: functional M3 antagonism, guinea pig ileum
# T4 construct: from tissue; host or cells: guinea pig ileum
# T4 sequence (H0W1Z3 1-590): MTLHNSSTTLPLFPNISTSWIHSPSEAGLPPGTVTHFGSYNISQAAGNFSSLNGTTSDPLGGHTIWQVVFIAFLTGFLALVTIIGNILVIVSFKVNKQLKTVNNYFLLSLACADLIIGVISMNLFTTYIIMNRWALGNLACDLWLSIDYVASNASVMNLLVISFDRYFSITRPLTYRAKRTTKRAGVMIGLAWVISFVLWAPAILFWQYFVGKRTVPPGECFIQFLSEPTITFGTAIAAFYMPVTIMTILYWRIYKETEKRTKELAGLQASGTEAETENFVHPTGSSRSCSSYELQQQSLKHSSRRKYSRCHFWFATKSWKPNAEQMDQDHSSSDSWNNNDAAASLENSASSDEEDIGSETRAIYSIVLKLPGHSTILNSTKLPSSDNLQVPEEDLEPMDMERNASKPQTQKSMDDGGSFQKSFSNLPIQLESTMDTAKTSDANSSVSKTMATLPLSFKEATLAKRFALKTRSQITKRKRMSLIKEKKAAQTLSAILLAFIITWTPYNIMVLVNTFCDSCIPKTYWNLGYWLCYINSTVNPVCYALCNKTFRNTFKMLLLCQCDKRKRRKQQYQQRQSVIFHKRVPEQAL
# [17] = target: T1, sigma-1; assay: sigma-1 receptor affinity (binding)
# [18] = test system: sodium channels; assay: sodium channel affinity; type: binding
# [19] = memory perturbations in mice; settings: 0.1 to 45 mg/kg, per os
structure (smiles),measurement,setting,value
"CN(C)CC1COC(c2ccccc2)(c2ccccc2)C1 (stereo not shown) [AE14, tetrahydro-N,N-dimethyl-5,5-diphenyl-3-furanomethanamine]",excitotoxic effects of the compound itself (functional excitotoxicity),[1],significant excitoneurotoxic effects
same,sigma-1 agonistic activity,[2],high and selective sigma-1 agonistic activity
same,IC50,[3],> 10 µM
same,neuroprotection against NMDA induced functional excitotoxicity,[4],no significant neuroprotection
same,neuroprotection against mice brain ischemia,[5],inactive
"CN(C)CC1CCOC1(c1ccccc1)c1ccccc1 (stereo not shown) [AE37, tetrahydro-N,N-dimethyl-2,2-diphenyl-3-furanomethanamine]",excitotoxic effects of the compound itself (functional excitotoxicity),[1],significant excitoneurotoxic effects
same,sigma-1 agonistic activity,[2],sub-micromolar and selective sigma-1 agonism
same,IC50,[3],8 µM
same,neuroprotection against NMDA induced functional excitotoxicity,[4],no significant neuroprotection
same,neuroprotection against mice brain ischemia,[5],inactive
"CNCC1CCOC1(c1ccccc1)c1ccccc1 (stereo not shown) [AE37Met, tetrahydro-N-methyl-2,2-diphenyl-3-furanomethanamine]",protection against MES convulsions,[6],protected; also recorded: high protective effects
same,increase of latency of lethality of PTZ,[7]; AE37Met 3.10 mg/kg po (so in the source),3.10 fold
same,increase of latency of lethality of PTZ,[7]; AE37Met 30 mg/kg po,18 fold
same,antagonism of Aβ25-35 induced amnesia and neurotoxicity,"[8]; 0.3 to 3 mg/kg ip, mice",antagonized
same,antiamnesic action on co-administration with IAChEases,"[8]; co-administered with Rivastigmine or Donepezil, Y-maze, step-through, intracerebral soluble amyloid 25-35, mice",higher than the sum of the antiamnesic effects
same,excitotoxic effects of the compound itself (functional excitotoxicity),[1],no excitotoxic effects
same,anti-immobility activity in the Porsolt test,[9],high anti-immobility activity
same,antagonistic effects on M2 and M3 muscarinic receptors in the periphery,[10],antagonistic effects
same,IC50,[11],4.35 µM
same,protection against PTZ convulsions,[12],protected; also recorded: high protective effects
same,IC50,[13],> 10 µM
same,concentration from which significant functional antagonism (M2),[14],≥ 3.0 µM
same,IC50,[15],2.77 µM
same,concentration from which significant functional antagonism (M3),[16],≥ 3.0 µM
same,IC50,[17],0.67 µM
same,IC50,[3],1 µM
same,IC50,[18],5.7 µM
same,antagonistic effects against NMDA induced functional excitotoxicity,"[4]; AE37Met 1 to 10 μM, rat hippocampal slices",first antagonistic effects
same,neuroprotection against NMDA induced functional excitotoxicity,[4],high dose (concentration)-dependant neuroprotection
same,protection against brain ischemia,[5]; 5 to 15 mg/kg ip,protected; also recorded: significant antagonism
same,memory perturbations,[19],no memory perturbations
